Laboratory results taken from patent US10149907B2, “Combinations of a photosensitizer with a hydrogen sulfide donor, thioredoxin inhibitor or nitroxide for use in photodynamic therapy” (UNIVERSITY OF EXETER, priority 2014, dated 2018).
“And” between values parts separate entries of the source, which are not always exact repeats. Identical values can stand only once. “Also recorded” adds a separate entry of the source. Like-named read-outs stand apart in the source and are kept apart here.

Legend:
A431 cells [1] = assay: Photodynamic cell killing in the presence of inhibitors of the thioredoxin antioxidant system or nitroxides (annexin V-FITC/propidium iodide flow cytometry); format: cell-based, human; conditions: for cell death: 3 h, irradiation; for potentiating effect on MAL photodynamic cell killing: summary of Examples 2A, 3A
Description: After this treatment, the cells were irradiated for 5 min (630 nm, 25 J/cm^2), then washed with PBS and the culture medium was replaced, after which the cells were placed back under 2% O2 and incubated for a further 3 h. Following this final incubation, cell death was analysed by annexin V-FITC and propidium iodide staining in conjunction with flow cytometry.
Cell death analysis by flow cytometry was carried out using the annexin V-FITC/propidium iodide protocol. This protocol allows a quantitative assessment of cell death, particularly specific modes of death, and involves staining the cells with fluorescein isothiocyanate-conjugated annexin A5 (annexin V-FITC) and propidium iodide (PI). Positive staining with annexin V-FITC alone indicates an apoptotic cell; positive staining with PI alone indicates a necrotic cell and dual staining of both annexin V and PI indicates a “late apoptotic” cell.
From each flask being assessed, the old medium was removed and placed into a corresponding individual 15 ml Falcon tube in order to collect any cells that may have detached from the surface. The flask was washed once with 1 ml PBS; also deposited in the Falcon tubes. Trypsin (500 μl) was added to each flask and the flasks were returned to the incubator with their caps loosened. Cell detachment was monitored using an inverted light microscope, until 50% of the cells were detached. The flasks were then lightly tapped to detach the remainder of the cells. Medium (2 ml) was added to each flask in order to neutralise the trypsin present before being removed and dispensed into the Falcon tubes. One more wash with PBS was carried out in order to ensure any cells left in the flasks were collected. The Falcon tubes were then centrifuged at 490 g for 3 min, forming a pellet at the bottom of the tube. The supernatant was discarded, and the cells were re-suspended in 5 ml of PBS, in order to wash them, before being centrifuged again at 490 g for 3 min. The wash stage was carried out once more before re-suspending the cell pellet in 95 μl of ice cold calcium (Ca^2+) buffer (50 mM HEPES, 700 mM NaCl, 12.5 mM CaCl2, pH 7.4) and adding 5 μl 12.5 μg/ml of annexin V-FITC (final concentration, 1.25 μg/ml), under reduced light conditions to prevent bleaching of the FITC. The Falcon tubes were placed on ice and in the dark for 15 min to allow annexin V staining. After 15 min, 860 μl of Ca^2+ buffer (10 mM Hepes adjusted to pH 7.4, 140 mM NaCl and 2.5 mM CaCl2) was added, followed by 40 μl of 1 mg/ml PI in water (final concentration, 0.04 mg/ml) to give a final volume of 1 ml. The samples were then ready to be assessed by flow cytometry.
The following flow cytometry process of sample detection was used. When using annexin V-FITC and PI, the detectors being used were FL1 (λmax=520 nm) and FL3 (λmax=670 nm), respectively, each with their own logarithmic histogram generated by the software. The intensity of the fluorescence detected is measured on a logarithmic scale on the x-axis and the y-axis represents the number of cells detected at a given fluorescence intensity. A plot of FL1/FL3 produces a 4-quadrant graph, where unstained and untreated cells are located in the bottom left quadrant, representing any cells found in the 1st decade of the single plot logarithmic histograms. Single staining with annexin V-FITC and PI are located in the bottom right and top left quadrant, respectively, and dual staining is located in the top right quadrant. These quadrants represent any cells detected above the 1st decade of the logarithmic histograms.

A431 cells [2] = assay: Mitochondrial reactive oxygen species generation during photodynamic irradiation, MitoSOX flow cytometry; format: cell-based, human; conditions: 3 hours, irradiated
Description: A431 cells were treated concurrently with AP39-C10 (10, 100 or 1000 nM) for 5 hours, MAL (1 mM) for 3 hours and MitoSOX (2.5 μM) for 1 hour, after which they were irradiated for 5 min (630 nm, 25 J/cm^2) and MitoSOX (mito-2-OH-E^+) fluorescence, indicative of mitochondrial oxidant production, was immediately analysed by flow cytometry. Results are set out in FIG. 23.
Mitochondria-targeted dihydroethidium (i.e. MitoSOX) was used to assess the production of mitochondrial reactive oxygen species (ROS) by PpIX photochemical reactions and to determine the effects of AP39-C10 on this process. All of the results are represented as a percentage of the untreated controls (100.0±8.5%). The fluorescence of the photoirradiated cells, which had been pre-treated with MAL, was 193.7±7.3% (p<0.001 c.f. untreated controls).

A431 cells [3] = assay: MAL-induced PpIX accumulation, fluorescence plate reader; format: cell-based, human; conditions: for PpIX accumulation, percentage of the MAL alone treatment: FIG. 38; for effect on PpIX fluorescence: 0.01 mM + 1 mM MAL; for increase in PpIX fluorescence: 1 mM + 1 mM MAL
A431 cells [4] = system: A431 cells
Description: A431 cells were seeded at a density of 1×10^5 cells/ml in 96 well plates and incubated under 2% O2 for 48 h prior to treatment. After 24 h, the culture medium was replaced and the cells were placed back into the incubators under 2% O2. Following this incubation period, the culture medium was then removed and the plates were washed with PBS. The cells were then treated with 1 mM MAL in the absence or presence of one of the compounds of interest and then incubated again at 2% O2 for 3 h. For experiments carried out with SRHDs, this treatment step was carried out for 5 h at 2% O2. After treatment, the cells were washed with PBS, the culture medium was replaced and the cells were placed back under 2% O2 for 3 h. Following this final incubation, cell death was analysed using the resazurin viability assay.
Resazurin (7-hydroxy-3H-phenoxazin-3-one 0-oxide) is a weakly fluorescent blue dye used primarily in oxidation-reduction cell viability assays. Irreversible NADH-dependent reduction by the mitochondria in mammalian cells leads to the production of resorufin, a highly fluorescent product with excitation at 571 nm, emission at 585 nm.
A431 cells were seeded into 96 well plates at a density of 1.5*10^6 cells per ml (200 μl per well, 3*10^5 cells) and incubated for 24 h to adhere. Following incubation, the cells were washed and treated with the compound of interest for the relevant time, and then washed with PBS. […] After a 2 h incubation, the fluorescence of each well was measured (excitation: 571 nm, emission: 585 nm) using a fluorescence plate reader. Data from these experiments was plotted as a percentage of cell viability compared to untreated control cells.

[5] = 1 mM MAL + co-treatment 1 mM (1000 μM)
[6] = 1 mM MAL + nitroxide 1 mM (MitoTEMPO 50 μM) + irradiation, FIG. 13, 34
[7] = MAL 1 mM + co-treatment 1 mM (1000 μM)

Structure (SMILES) | cell death (A431 cells [1]; [5]) | modes of cell death (A431 cells [1]; [6]) | potentiating effect on MAL photodynamic cell killing (A431 cells [1]) | MitoSOX fluorescence, percentage of untreated cells (A431 cells [2]; [7]) | PpIX accumulation, percentage of the MAL alone treatment (A431 cells [3]; 10 μM + MAL 1 mM, 3 hours) [%] | effect on PpIX fluorescence (A431 cells [3]; 3 h) | PpIX accumulation, percentage of the MAL alone treatment (A431 cells [3]; 100 μM + MAL 1 mM, 3 hours) [%] | increase in PpIX fluorescence (A431 cells [3]; 3 h) [fold] | PpIX accumulation, percentage of the MAL alone treatment (A431 cells [3]; 1000 μM + MAL 1 mM, 3 hours) [%] | cell viability, percentage of untreated control (A431 cells [4]; 0.25 mM with 1 mM MAL, 3 hours) [%] | cell viability, percentage of untreated control (A431 cells [4]; 0.5 mM with 1 mM MAL, 3 hours) [%] | cell viability, percentage of untreated control (A431 cells [4]; 1 mM with 1 mM MAL, 3 hours) [%] | cell viability, percentage of untreated control (A431 cells [4]; 2 mM with 1 mM MAL, 3 hours) [%] | cell viability, percentage of untreated control (A431 cells [4]; 5 mM with 1 mM MAL, 3 hours) [%] | cell viability, percentage of untreated control (A431 cells [4]; 10 mM with 1 mM MAL, 3 hours) [%] | cell viability, percentage of untreated control (A431 cells [4]; 10 mM, 24 hours) [%] | cell viability, percentage of untreated control (A431 cells [4]; 50 mM, 24 hours) [%] | also measured
CC1(C)CCCC(C)(C)N1[O] [TEMPO, 2,2,6,6-tetramethyl-1-piperidinyloxy] | 52.0±8.3% and 46.3±3.6% | an increase in apoptotic and late apoptotic cell death; also recorded: a further increase in late apoptosis and necrosis with little effect on apoptotic cell death | more robust potentiating effect | 418.8±6.3% | 100.3±3.8 | increased PpIX fluorescence slightly, but this was not statistically significant | 127.0±3.3 | ~2 | 159.2±4.1 | 97.8±3.4 | 97.5±1.7 | 98.6±6.8 | 97.4±6.2 | 92.9±6.6 | 79.9±8.5 | 64.9±0.1 | 8.5±0.2 | increase in PpIX accumulation compared to MAL alone (A431 cells [3]; 50 μM + MAL 1 mM, 3 hours, FIG. 35): 0.0±4.9%; peak response, increase in PpIX accumulation compared to MAL alone (A431 cells [3]; peak at TEMPO 5 mM, MitoTEMPO 100 μM, CP94 100 μM, MAL 1 mM, 3 hours): 138.1±10.5%
CC1(C)CC(O)CC(C)(C)N1[O] [TEMPOL, 4-hydroxy-2,2,6,6-tetra methylpiperidine 1-oxyl] | 50.8±6.8% and 69.3±3.1% | an increase in late apoptotic and necrotic cell death; also recorded: a further increase in late apoptosis and necrosis with little effect on apoptotic cell death | more robust potentiating effect | 253.3±6.3% and 316.8±1.6% | 109.0±2.7 | increased PpIX fluorescence slightly, but this was not statistically significant | 141.2±4.2 | ~2 | 209.2±5.1 | 99.3±4.4 | 102.0±3.6 | 99.8±2.9 | 104.2±3.3 | 116.2±2.7 | 77.8±4.7 |  |  | modes of cell death (A431 cells [1]; 1 mM MAL + TEMPOL, dependent on concentration + irradiation, FIG. 37): an increase in apoptosis and late apoptosis, with smaller increases in necrosis also observed; cell death (A431 cells [1]; 1 mM MAL + co-treatment 10 μM): 40.5±4.1%; cell death (A431 cells [1]; 1 mM MAL + co-treatment 100 μM): 48.5±7.4%; MitoSOX fluorescence, percentage of untreated cells (A431 cells [2]; MAL 1 mM + co-treatment 10 μM): 99.4±5.44%; MitoSOX fluorescence, percentage of untreated cells (A431 cells [2]; MAL 1 mM + co-treatment 100 μM): 226.5±19.4%; effect on PpIX accumulation (A431 cells [3]; 0.1 mM and 1 mM + 1 mM MAL, 3 h): significantly increased PpIX accumulation further
CC1(C)CC(=O)CC(C)(C)N1[O] [TEMPONE] | 37.9±2.3% | a further increase in late apoptosis and necrosis with little effect on apoptotic cell death | mild potentiating effect | 226.4±6.8% | 100.3±4.0 |  | 123.8±2.5 |  | 160.2±3.2 |  |  |  |  |  |  | 80.3±13.3 | 53.7±13.3 | 
